# Measurements taken from US9365830B2, “Agents and methods for inhibiting human pluripotent stem cell growth” (VIACYTE, INC., priority 2010, dated 2016).
# Key:
# [1] = system: hESCs (BG02); assay: Real-time impedance assay (RT-CES) for inhibitory and cytotoxic agents on hESCs; conditions: 10 μM compound added after about 24 hours, cultured about 5 more days; compared to DMSO control
# Excerpt: The foregoing 176 selected compounds from the complete LOPAC1280™ library were then used to screen human pluripotent stem cells, e.g., hESCs, and differentiating cultures during Stage 1 (definitive endoderm) using a real-time impedance assay (ACEA biosciences RT-CES system). The RT-CES system uses 96-well trays that contain embedded microsensors to monitor changes in electrical impedance, which is translated into a measure of cell index. Any overt alteration within a cell culture can be detected, including but not limited to cell proliferation, migration, cell spreading, apoptosis, differentiation and the like. […] An increase in the cell index indicates proliferation of the cells, for example, proliferation of the undifferentiated cells. […] See also FIG. 1. […] A “scallop” cell index is one which remains high due to a confluent culture of cells, but will go down and up (scallop) between daily feedings. Conversely, cells undergoing differentiation have distinctive patterns, such as peaks and troughs in the cell index, potentially indicative of an epithelial-to-mesenchymal transition, flattening, cell migration, apoptosis or similar differentiation and growth related changes.
# Impedance Assay for Inhibitory and Cytotoxic Agents. Human pluripotent stem cells, e.g., 2×10^4 hESCs (BG02), were cultured in DC-HAIF, a heregulin-based defined media, with daily feeding in the impedance monitoring plates. After about 24 hours, and 10 μM of the selected LOPAC1280™ compound was added to each well (see arrowhead in FIGS. 3 A & B) and cultured for about an additional 5 days.
# [2] = system: adherent Stage 1 cell cultures of BG02; assay: Q-PCR marker gene expression, adherent Stage 1 cultures of BG02; format: cell-based, human
# Excerpt: FIGS. 4A-4G are bar graphs showing the relative gene expression levels of OCT4 (FIG. 4A), NANOG (FIG. 4B), FOXA2 (FIG. 4C), SOX17 (FIG. 4D), SOX7 (FIG. 4E), PAX6 (FIG. 4F) and ZIC1 (FIG. 4G) BG02 with treatment of candidate selective cytotoxic agents from the LOPAC1280™ sublibrary (Table 4) to adherent Stage 1 cell cultures of BG02. Expression levels were normalized using the geometric mean of three housekeeping genes, GUSB, CYCG and TBP. The graphs depict fold regulation compared to the hESC sample. The large arrow heads indicate time of the drug treatment. D=DMSO (control); C=Chelerythrine Chloride; A=AG490; B=BTO-1; De=Dephostatin; S=SU6656.
# Screen for Effects on Stages 1-5 Differentiation. To further determine whether these 5 candidate compounds added at Stage 1 affected other differentiated cell types (e.g. Stages 2-5: foregut endoderm, posterior foregut endoderm, pancreatic endoderm and endocrine precursor cells, respectively), hES were differentiated in the presence or absence of compounds, and RNA samples were taken at various stages for gene expression analysis by Q-PCR.
# Gene expression levels were plotted relative to a DMSO treated control at the end of Stage 1 (FIG. 4), and relative to undifferentiated hESC aggregates (FIGS. 5 and 6). See “Control” in FIGS. 4, 5 & 6. […] Chelerythrine chloride, Dephostatin, SU 6656 and Tyrphostin AG 490 compounds each caused an increase in SOX17 gene expression as compared to the DMSO control, consistent with the gene expression profile for Stage 1 definitive endoderm cell cultures (FIG. 4D). However, Tyrphostin AG 490 (AG) and SU 6656 (SU) each caused a decrease in FOXA2 (HNF3β) expression as compared to the DMSO control, indicating adverse effects of these two compounds on definitive endoderm (FIG. 4C). Yet none of the compounds appeared to substantially impact expression of non-definitive endoderm markers including SOX7, PAX6 or ZIC1 (FIGS. 4 E, 4F & 4G), and were not, therefore, excluded on the basis of inducing differentiation to other cell types. […] This compound neither decreased OCT4 or NANOG expression, nor increased FOXA2 (HNF3β) or SOX17 expression, as would have been expected of a pluripotent stem cell-selective inhibitor/cytotoxic agent.
# [3] = system: differentiating Stage 1 cultures (definitive endoderm); assay: Secondary screen on differentiating Stage 1 cultures in 6-well trays; format: cell-based, human; conditions: compounds added to differentiating Stage 1 cultures
# Excerpt: (§1) The impedance assay on the hESCs using the compounds in Table 4 above gave greater than twenty (20) hits. However, the ideal candidate compound of the present invention should not only be inhibitory or cytotoxic to human pluripotent stem cells, such as hESCs or hIPSCs, but should at the same time have no effect on cell viability of differentiated or differentiating cell populations including Stage 1, 2, 3, 4 and 5 type cells cultures (definitive endoderm, foregut endoderm, posterior foregut, pancreatic endoderm and endocrine cells, respectively). […] Approximately 3×10^4 hES cells were plated per well and grown for 24 hrs in DC-HAIF defined medium (i.e. StemPro® hESC SFM medium (Life Technologies, Carlsbad, Calif.). Stage 1 or definitive endoderm differentiation was then induced by changing the medium and culturing in RPMI, 100 ng/mL Activin A, and 10 ng/mL of FGF2. […] of GSK-3 beta Inhibitor 15 (Calbiochem #361558) as added to the culture for the first 24 hours of differentiation only. 10 μM of each of the candidate compounds were added about 48 hours or 2 days after differentiation was induced (see FIGS. 3 C & D, large arrowhead), and the cells were cultured for an additional 2 days.
# Secondary Screen with Selected Compounds. A secondary screen using 9 of the 10 candidate compounds in Table 5 was performed by adding the compounds to differentiating Stage 1 cultures (definitive endoderm) as described above. For the secondary screen, larger standard 6-well trays were used instead of the RT-CEAS 96-well culture plates used in primary screens employing impedance assays. Only 9 of the 10 compounds in Table 5 were tested because the 10th was not available in sufficient quantity at the time the assays were performed. In the larger, 6-well trays, 5 of the 9 compounds listed in Table 5 had no effect on viability of differentiating cells or differentiated definitive endoderm. […] This assay also confirmed that the viability of differentiating cells and differentiated definitive endoderm cells was apparently consistent regardless of the numbers of cells tested, or the size, volume, or source of the culture vessel.
# [4] = system: NPCs; assay: Secondary screen, lowest effective dose on NPCs; format: cell-based, human; conditions: lowest concentration that elicited cytotoxicity; range 0.1 to 50 μM; read-out: ED NPC (lowest effective dose)
# Procedure: In addition, the complete LOPAC1280™ collection was also screened for effects on neural progenitor cells (NPCs) that were derived from the hESCs. Neural progenitors were plated in serum-free MedII conditioned medium at 6×10^4 cells/well and fed daily. Two days after plating, 10 μM of each compound was added and the cells were cultured for an additional 2 days. […] Reduced crystal violet staining was indicative of lower proportions of NPCs. See circled wells in FIG. 7B. The left and right columns of the LOPAC1280™ plates from which the compounds were dispensed were empty and served as untreated controls. […] See Table 6 below listing the name and class of activity of each candidate compound identified in this screen (except chelerythrine chloride, which is listed in Table 5). ChCl was not included in the subsequent round of screening. Therefore only 40 compounds were tested further.
# (§2) Using a range of different concentrations from 0.1 to 50 μM, the forty compounds in Table 6 were re-screened (secondary screen) using hESCS and NPCs. The effective dose (ED) was defined as the lowest concentration of a compound that elicited cytotoxicity during the secondary screen. […] The darker wells were indicative of the increased numbers or percentages of proliferating or growing pluripotent stem cells in the wells. In addition, these 40 compounds were screened on differentiating definitive endoderm (DE) cell cultures in 96-well plate impedance assays (described above) to determine which of these compounds were not cytotoxic to definitive endoderm cells at the lowest effective dose on either hESC or NPC. […] See “ACEA DE” column in Table 6.
# [5] = system: differentiating definitive endoderm (DE) cell cultures; assay: 96-well plate impedance assay (ACEA) on differentiating definitive endoderm at lowest effective dose; format: cell-based, human; set-up: key: Viable: Compounds that did not appear to be cytotoxic toward differentiating DE cultures were marked as “viable”, meaning that the compound did not affect the survival, growth, proliferation or differentiation of the differentiated cells; conditions: at the lowest effective dose on either hESC or NPC
# Excerpt: as §1, §2
# [6] = system: hESCs; assay: Secondary screen, lowest effective dose on hESCs; format: cell-based, human; conditions: lowest concentration that elicited cytotoxicity; range 0.1 to 50 μM; read-out: ED hESC (lowest effective dose)
# Procedure: To expand the number of potential candidate hESC cytotoxic and inhibitory compounds, the complete LOPAC1280™ collection (containing 1,280 compounds) was screened. In the primary screen, cytotoxicity was tested on undifferentiated hESCs (about 3×10^4 BG01 cells) in 16 standard 96-well trays, in DC-HAIF defined medium on growth factor-reduced MATRIGEL™ diluted 1:200, which were fed daily (FIG. 7A). 10 μM of each compound was added to the hESCs one day after plating, and the cells were cultured for an additional 2 days. Plates were then fixed and stained for alkaline phosphatase (AP) to identify relative decreases in proliferation or growth of hESCs (as reduced AP staining), indicative of lower proportions of hESCs. See the circled wells in FIG. 7A.
# as §2
# [7] = system: undifferentiated hESCs growing in adherent culture; assay: EC50 of cytotoxic effect on undifferentiated hESCs in adherent culture, real-time impedance assay; format: cell-based, human; conditions: Homo sapiens, read-out: EC50 concentrations for hES cells (cytotoxic effect)
# Procedure: In summary, the final three (3) candidates identified from both the primary and secondary screens (EXAMPLE 1) and the full screen of the LOPAC1280™ collection (EXAMPLE 2) were Chelerythrine Chloride, Caffeic acid and Ivermectin. FIG. 11 lists the known or inferred mode(s) of action for these three compounds, as well as their structures. EC50 values for the respective cytotoxic effects on undifferentiated hESCs growing in adherent culture were determined using real-time impedance assays.
# Depletion of OCT4-positive cells during Stage 1 differentiation was examined using the plating assay described above. Stage 1 differentiations of hES cells were treated from day 1 to 2 with the candidate compounds as described in Example 2 (chelerythrine chloride, caffeic acid and Ivermectin), at their EC50 concentrations for hES cells. Plated untreated and DMSO-treated aggregates were indistinguishable, and both contained discrete clusters of OCT4-positive cells. See FIG. 13A top and bottom panels for a DMSO treated example. The intensity of OCT4-positive staining in differentiating aggregate cell cultures treated with DMSO (control) was equivalent to undifferentiated hES cells.
smiles,measurement,setting,value
N#C/C(=C\c1ccc(O)c(O)c1)C(=O)Nc1ccccc1 [Tyrphostin AG 494],cell index (impedance); inhibitory or cytotoxic effect on the hESCs,[1],significant decrease
N#Cc1cc([N+](=O)[O-])c2sc(C(N)=O)[n+]([O-])c2c1 [BTO-1],cell index (impedance); inhibitory or cytotoxic effect on the hESCs,[1],significant decrease
same,FOXA2 (HNF3β) expression,"[2]; end of Stage 1, compared to DMSO control (FIG. 4C)",did not appear to have any effect
same,SOX17 gene expression,"[2]; end of Stage 1, compared to DMSO control (FIG. 4D)",did not appear to have any effect
same,OCT4 and NANOG gene expression,"[2]; end of Stage 1, compared to DMSO control (FIGS. 4A, 4B)",did not appear to have any effect
same,Viability of Definitive Endoderm,[3],Viable
"CC(Cc1ccc(O)c(O)c1)C(C)Cc1ccc(O)c(O)c1 (stereo not drawn) [Nordihydroguaiaretic acid from Larrea, Nordihydroguaiaretic acid from Larrea divaricata (creosote bush)]",cell index (impedance); inhibitory or cytotoxic effect on the hESCs,[1],significant decrease
same,minimal effective concentration,[4],5 µM
same,ACEA DE,[5],Viable
same,minimal effective concentration,[6],5 µM
COc1ccc2c(c[n+](C)c3c4cc5c(cc4ccc23)OCO5)c1OC [Chelerythrine chloride],cell index (impedance); inhibitory or cytotoxic effect on the hESCs,[1],significant decrease
same,EC50,[7],1400 nM
